In PMC12396409, “Screening and hit evaluation of a microbial metabolite library against the pathogenic Plasmodium falciparum and Toxoplasma gondii parasites” (International Journal for Parasitology: Drugs and Drug …, 2025):
Like-named read-outs stand apart in the source and are kept apart here.

Assays:
[1] = system: P. falciparum 3D7 parasites; test: P. falciparum growth inhibition assay, 1-cycle (72 h treatment), SYBR DNA staining (library screen at 2 μg/mL and dose-response); assay type: cell-based, Plasmodium falciparum; settings: for activity at 2 µg/mL: Plasmodium falciparum, 3D7, 72 h
[2] = system: P. falciparum 3D7 parasites; test: P. falciparum growth inhibition assay, 2-cycle (120 h treatment), delayed-death screen and dose-response; assay type: cell-based, Plasmodium falciparum; settings: for activity at 2 µg/mL: Plasmodium falciparum, 3D7, 120 h
[3] = system: T. gondii RH strain (RH-Tub-eYFP) tachyzoites; test: microbe, parasite or virus in culture; assay type: cell-based, Toxoplasma gondii; settings: 72 h; for percent parasite growth at 2 µg/mL: Toxoplasma gondii
[4] = library screen at 2 μg/mL, 72 h, % growth, replicate 1
[5] = library screen at 2 μg/mL, 72 h, % growth, replicate 2
[6] = library screen at 2 μg/mL, 120 h, % growth, replicate 1
[7] = library screen at 2 μg/mL, 120 h, % growth, replicate 2
[8] = library screen at 2 μg/mL, % growth, replicate 1
[9] = library screen at 2 μg/mL, % growth, replicate 2
[10] = P. falciparum, 72 h, screen at 2 μg/mL, replicate 1
[11] = P. falciparum, 72 h, screen at 2 μg/mL, replicate 2
[12] = P. falciparum, 120 h, screen at 2 μg/mL, replicate 1
[13] = P. falciparum, 120 h, screen at 2 μg/mL, replicate 2
[14] = T. gondii, screen at 2 μg/mL, replicate 1
[15] = T. gondii, screen at 2 μg/mL, replicate 2
[16] = P. falciparum 3D7, 72 h, library screen at 2 μg/mL, % growth, replicate 1
[17] = P. falciparum 3D7, 72 h, library screen at 2 μg/mL, % growth, replicate 2
[18] = P. falciparum 3D7, 120 h, library screen at 2 μg/mL, % growth, replicate 1
[19] = P. falciparum 3D7, 120 h, library screen at 2 μg/mL, % growth, replicate 2
[20] = T. gondii RH, library screen at 2 μg/mL, % growth, replicate 1
[21] = T. gondii RH, library screen at 2 μg/mL, % growth, replicate 2
[22] = P. falciparum, 72 h, screen at 2 μg/mL, replicate 1, read-out: Pf_72h_%Growth_Rep1
[23] = P. falciparum, 72 h, screen at 2 μg/mL, replicate 2, read-out: Pf_72h_%Growth_Rep2
[24] = P. falciparum, 120 h, screen at 2 μg/mL, replicate 1, read-out: Pf_120h_%Growth_Rep1
[25] = P. falciparum, 120 h, screen at 2 μg/mL, replicate 2, read-out: Pf_120h_%Growth_Rep2
[26] = T. gondii, screen at 2 μg/mL, replicate 1, read-out: Tg_72h_%Growth_Rep1
[27] = T. gondii, screen at 2 μg/mL, replicate 2, read-out: Tg_72h_%Growth_Rep2

With `O=C(O)CC[N+](=O)[O-]` [BIA-N1694] the Pf_72h_%Growth_Rep1 ([1]; P. falciparum 3D7, 72 h, parasite screen at 2 μg/mL, % growth, replicate 1) was 75.60%, the Pf_72h_%Growth_Rep2 ([1]; P. falciparum 3D7, 72 h, parasite screen at 2 μg/mL, % growth, replicate 2) was 92.27% and the Pf_120h_%Growth_Rep1 ([2]; P. falciparum 3D7, 120 h, parasite screen at 2 μg/mL, % growth, replicate 1) was 78.14%. For the same compound, the Pf_120h_%Growth_Rep2 ([2]; P. falciparum 3D7, 120 h, parasite screen at 2 μg/mL, % growth, replicate 2) was 7.96%, the Tg_72h_%Growth_Rep1 ([3]; T. gondii, parasite screen at 2 μg/mL, % growth, replicate 1) was 133.03% and the Tg_72h_%Growth_Rep2 ([3]; T. gondii, parasite screen at 2 μg/mL, % growth, replicate 2) was 105.32%.

`Cc1cc(=O)c(O)cc2c1C[C@@H]1CC(C)(C)/C=C/C[C@@]3(C)Oc4cc(O)c(=O)cc(C)c4C[C@@H]3C[C@@H](O)[C@]1(C)O2` [Eupenifeldin] was tested, and the “1) Growth (%) at 72 h” value ([1]; P. falciparum, 2 μg/mL, 72 h) was 28.81%, the Mean ([1]; P. falciparum, 72 h, 2 μg/mL, mean of both replicates, growth (% of control)) was 28.81 and the Pf_72h_%Growth_Rep1 [1, 4] was 0.51%. The Pf_72h_%Growth_Rep2 [1, 5] was 57.11%, the “2) Growth (%) at 120 h” value ([2]; P. falciparum, 2 μg/mL, 120 h) was 14.46% and the “3) Fold change (72 h/120 h)” value ([2]; P. falciparum, growth at 72 h / growth at 120 h, 2 μg/mL) was 2.0. For the same compound, the Pf_120h_%Growth_Rep1 [2, 6] was 3.95%, the Pf_120h_%Growth_Rep2 [2, 7] was 24.96% and the Tg_72h_%Growth_Rep1 [3, 8] was 1.55%. For the same compound, the Tg_72h_%Growth_Rep2 [3, 9] was 1.71%.

Work on `CN[C@H]1C(=O)N[C@@H]2Cc3ccc(cc3)Oc3cc4cc(c3O[C@@H]3O[C@H](C(=O)O)[C@@H](O)[C@H](O)[C@H]3NC(=O)CCCCCCCCC(C)C)Oc3ccc(cc3Cl)[C@@H](O)[C@@H]3NC(=O)[C@H](NC(=O)[C@@H]4NC(=O)[C@@H](NC2=O)c2cc(cc(O)c2Cl)Oc2cc1ccc2O)c1ccc(O)c(c1)-c1c(O[C@H]2O[C@H](CO)[C@@H](O)[C@H](O)[C@@H]2O)cc(O)cc1[C@@H](C(=O)NCCCN(C)C)NC3=O` [Dalbavancin] yielded a Pf_72h_%Growth_Rep1 [1, 10] of 84.83%, a Pf_72h_%Growth_Rep2 [1, 11] of 84.70% and a Pf_120h_%Growth_Rep1 [2, 12] of 61.95%. The Pf_120h_%Growth_Rep2 [2, 13] was 91.53%, the Tg_72h_%Growth_Rep1 [3, 14] was 148.88% and the Tg_72h_%Growth_Rep2 [3, 15] was 101.28%.

Work on `CCCCCC(=O)NC1CCOC1=O` (stereo not shown) [BIA-H1495] yielded a Pf_72h_%Growth_Rep1 [1, 16] of 85.11%, a Pf_72h_%Growth_Rep2 [1, 17] of 87.66% and a Pf_120h_%Growth_Rep1 [2, 18] of 97.98%. It also gave a Pf_120h_%Growth_Rep2 [2, 19] of 95.38%, a Tg_72h_%Growth_Rep1 [3, 20] of 133.00% and a Tg_72h_%Growth_Rep2 [3, 21] of 97.80%.

For `CC(C)C[C@H]1C(=O)O[C@H](C(C)C)C(=O)N(C)[C@@H](CC(C)C)C(=O)O[C@H](C(C)C)C(=O)N(C)[C@@H](CC(C)C)C(=O)O[C@H](C(C)C)C(=O)N(C)[C@@H](CC(C)C)C(=O)O[C@H](C(C)C)C(=O)N1C` [Bassianolide], the Pf_72h_%Growth_Rep1 [1, 4] was 6.97%, the Pf_72h_%Growth_Rep2 [1, 5] was 5.23% and the Pf_120h_%Growth_Rep1 [2, 6] was 10.85%. It also gave a Pf_120h_%Growth_Rep2 [2, 7] of -3.01%, a Tg_72h_%Growth_Rep1 [3, 8] of 78.43% and a Tg_72h_%Growth_Rep2 [3, 9] of 93.64%.

`N#Cc1cn([C@@H]2O[C@H](CO)[C@@H](O)[C@H]2O)c2ncnc(N)c12` [Toyocamycin] showed an activity at 2 µg/mL [1, 22] of 2.78%, an activity at 2 µg/mL [1, 23] of 4.02% and an activity at 2 µg/mL [2, 24] of 25.6%. The activity at 2 µg/mL [2, 25] was 6.44%, the percent parasite growth at 2 µg/mL [3, 26] was 0.78% and the percent parasite growth at 2 µg/mL [3, 27] was 1.19%.

For `COc1ccc(Br)c(C)c1C(=O)O[C@@H]1C[C@H](O[C@@H]2C(C)O[C@@H](O[C@H]3CCC[C@@H]4[C@@H]3C=C[C@H]3CCCC/C=C/[C@@H]5C=C(C(=O)O)[C@H](C)C[C@]56OC(=O)C(=C6O)OC(=O)[C@@]43C)C[C@H]2O)O[C@H](C)[C@H]1O` (stereo partly shown) [Bromothricin], the Pf_72h_%Growth_Rep1 [1, 10] was 90.13%, the Pf_72h_%Growth_Rep2 [1, 11] was 84.25% and the Pf_120h_%Growth_Rep1 [2, 12] was 159.83%. It also gave a Pf_120h_%Growth_Rep2 [2, 13] of 97.51%, a Tg_72h_%Growth_Rep1 [3, 14] of 83.92% and a Tg_72h_%Growth_Rep2 [3, 15] of 93.14%.

`CCO[C@@H]1[C@@H](OC)[C@H](C)O[C@@H](O[C@H]2C[C@H]3[C@@H]4C=C5C(=O)[C@H](C)[C@@H](O)CCC[C@H](CC)OC(=O)C[C@H]5[C@@H]4C=C(C)[C@@H]3C2)[C@@H]1OC` [spinosyn L 17-pseudoaglycone, 3'-Ethoxy-] gave a Pf_72h_%Growth_Rep1 ([1]; P. falciparum, 72 h, parasite screen 2 μg/mL, % growth, replicate 1) of 17.82%, a Pf_72h_%Growth_Rep2 ([1]; P. falciparum, 72 h, parasite screen 2 μg/mL, % growth, replicate 2) of 8.15% and a Pf_120h_%Growth_Rep1 ([2]; P. falciparum, 120 h, parasite screen 2 μg/mL, % growth, replicate 1) of 6.02%. It also gave a Pf_120h_%Growth_Rep2 ([2]; P. falciparum, 120 h, parasite screen 2 μg/mL, % growth, replicate 2) of 1.27%, a Tg_72h_%Growth_Rep1 ([3]; T. gondii, parasite screen 2 μg/mL, % growth, replicate 1) of 97.87% and a Tg_72h_%Growth_Rep2 ([3]; T. gondii, parasite screen 2 μg/mL, % growth, replicate 2) of 88.47%.

Compound `CN(CC[C@H](N)CC(=O)N[C@H]1C=C[C@H](n2ccc(N)nc2=O)O[C@@H]1C(=O)O)C(=N)N` [Blasticidin S] has an activity at 2 µg/mL [1, 22] of 4.31%, an activity at 2 µg/mL [1, 23] of 2.87% and an activity at 2 µg/mL [2, 24] of 5.52%. For the same compound, the activity at 2 µg/mL [2, 25] was -7.54%, the percent parasite growth at 2 µg/mL [3, 26] was 73.3% and the percent parasite growth at 2 µg/mL [3, 27] was 30%.

`COc1cc(O)c2c(=O)oc3c(O)c(OC)cc(C)c3c2c1` [BIA-G1559] was tested, and the Pf_72h_%Growth_Rep1 [1, 16] was 89.69%, the Pf_72h_%Growth_Rep2 [1, 17] was 92.13% and the Pf_120h_%Growth_Rep1 [2, 18] was 94.64%. It also gave a Pf_120h_%Growth_Rep2 [2, 19] of 147.16%, a Tg_72h_%Growth_Rep1 [3, 20] of 136.29% and a Tg_72h_%Growth_Rep2 [3, 21] of 91.52%.
